Source: patent US20220289794A1, “SYNTHETIC ANTIMICROBIAL PEPTIDES” (priority 2019, published 2022)
Values after ≈ are worked out from the molar mass of the structure shown. Values joined by “and” are separate entries in the source; they are usually repeats but may differ in a detail not shown here. Identical values can stand only once. Like-named read-outs stand apart in the source and are kept apart here. Non-standard residues stand in square brackets, D forms with d. Residues, ends and D or L forms follow the SMILES beside them. 2Nal = N[C@@H](Cc1ccc2ccccc2c1)C(=O)O

Legend:
[1] = system: Escherichia coli (ATCC 25922); format: cell-based
Outline: (§1)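 MIC was taken as the lowest concentration inhibiting growth, judged by visual or spectrophotometric turbidity. MBC was the lowest concentration reducing viability of the initial inoculum by ≥99.9%. Strains were clinically reported multi-drug-resistant isolates.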

[2] = system: Klebsiella pneumoniae (ATCC BAA-1705); format: cell-based
Outline: as §1

[3] = system: Methicillin-resistant Staphylococcus aureus MRSA (ATCC BAA-1556); format: cell-based
Outline: as §1

[4] = system: Pseudomonas aeruginosa (ATCC 27883); format: cell-based; conditions: Table 22
Outline: as §1

[5] = system: MRSA; assay: In vivo Galleria Mellonella Assay (MRSA infection); conditions: MRSA-infected G. mellonella, after one week
[6] = system: Methicillin-resistant Staphylococcus aureus MRSA (ATCC BAA-1556); conditions: ATCC BAA-1556
[7] = system: Pseudomonas aeruginosa (ATCC 27883); conditions: ATCC 27883
[8] = system: Escherichia coli (ATCC 25922); conditions: ATCC 25922
[9] = system: Klebsiella pneumoniae (ATCC BAA-1705); conditions: ATCC BAA-1705
[10] = system: Methicillin-Resistant Staphylococcus aureus (MRSA); conditions: previously shown (Oh et al. 2014), listed as [W4R4]; cited from earlier work
[11] = system: Pseudomonas aeruginosa (PA01); conditions: previously shown (Oh et al. 2014), listed as [W4R4]; cited from earlier work
[12] = system: Methicillin-Resistant Staphylococcus aureus (MRSA); conditions: cited from earlier work
[13] = system: E. coli; conditions: cited from earlier work
[14] = system: Pseudomonas aeruginosa (PSA, ATCC 27883); assay: Synergy checkerboard assay (FIC index); format: cell-based; conditions: ATCC27883, 24 h; Table 25; Pseudomonas aeruginosa (ATCC 27883); antibiotic alone
[15] = system: Clostridium difficile (ATCC 700057); assay: MIC determination, broth microdilution (CLSI); format: cell-based
[16] = system: Clostridium difficile (NAP1/027); assay: MIC determination, broth microdilution (CLSI); format: cell-based
[17] = system: Pseudomonas aeruginosa (PSA, ATCC 27883); conditions: antibiotics alone and PHY-MIX (1:1 w/w)
[18] = system: Escherichia coli (E. Coli, ATCC 25922); conditions: antibiotics alone and PHY-MIX (1:1 w/w)
[19] = system: Klebsiella pneumoniae (KPC, ATCC BAA-1705); conditions: Klebsiella pneumoniae (ATCC BAA-1705); antibiotic alone
[20] = system: Staphylococcus aureus ATCC 33592 (MRSA) biofilm
Protocol: (§2) Bacteria. The bacterial strains employed in these assays were obtained from the American Type Culture Collection (ATCC). Each strain was propagated as recommended by the ATCC and each strain was stored as a frozen glycerol stock at −80° C.
(§3) Bacterial Propagation. […] Following the incubation, the culture was diluted to an optical density 625 nm (OD625) of 0.1 in cation adjusted Mueller Hinton Broth (CAMHB), which is equivalent to 1×10^8 CFU/mL. The culture was further diluted to 1×10^6 CFU/mL which was used for the assay.
(§4) Determination of the Temporal Effects of SPL7013 Addition to Inhibit Biofilm Formation. Each strain of bacteria was adjusted to a concentration of 1×10^6 CFU/mL and added to a 96-well flat-bottomed plate in a volume of 100 mL. One-hundred microliters (100 mL) of each compound at 10 concentrations was added in triplicate wells. The cultures were incubated for 24 hours at 37° C. under the appropriate growth conditions for each organism. Following the incubation, the media was removed, and the formed biofilms were fixed for 1 hour at 60° C. Two-hundred microliters (200 mL) of 0.06% crystal violet was added to the wells for 5 to 10 minutes and the wells were then gently washed three times with deionized H2O to remove the crystal violet. Following crystal violet staining 200 mL of 70% ethanol was added to the wells.

[21] = system: KPC; conditions: Table 37; peptides and peptide-capped gold nanoparticles
[22] = system: PSA; conditions: Table 37; peptides and peptide-capped gold nanoparticles
[23] = system: E. coli; conditions: Table 37; peptides and peptide-capped gold nanoparticles
[24] = system: Methicillin-resistant Staphylococcus aureus MRSA (ATCC BAA-1556); assay: microbe, parasite or virus in culture; conditions: read-out: MIC MRSA (ATCC BAA-1556)
[25] = system: Pseudomonas aeruginosa (ATCC 27883); assay: microbe, parasite or virus in culture
[26] = system: Escherichia coli (ATCC 25922); assay: microbe, parasite or virus in culture
[27] = system: Klebsiella pneumoniae (ATCC BAA-1705); assay: microbe, parasite or virus in culture
[28] = system: Pseudomonas aeruginosa (PSA, ATCC 27883); assay: microbe, parasite or virus in culture; conditions: ATCC27883, 24 h, read-out: Pseudomonas aeruginosa (ATCC 27883) MIC
[29] = system: Klebsiella pneumoniae (KPC, ATCC BAA-1705); assay: microbe, parasite or virus in culture; conditions: ATCCBAA1705, 24 h
[30] = system: Escherichia coli (E. Coli, ATCC 25922); assay: microbe, parasite or virus in culture; conditions: ATCC25922, 24 h, read-out: Escherichia coli (ATCC 25922) MIC
[31] = system: Klebsiella pneumoniae (KPC, ATCC BAA-1705); assay: microbe, parasite or virus in culture; conditions: ATCCBAA1705, 24 h, read-out: MIC of antibiotic
[32] = system: Staphylococcus aureus ATCC 33592 (MRSA) biofilm; assay: microbe, parasite or virus in culture; conditions: read-out: inhibition of biofilm formation
Protocol: as §2, §3, §4

[33] = system: MRSA; assay: microbe, parasite or virus in culture; conditions: Staphylococcus aureus, ATCCBAA1556 / MRSA, read-out: MIC MRSA (ATCC BAA-1556)
[34] = system: S. aureus ATCC 29213; conditions: ATCC 29213
[35] = system: human red blood cells; parameters: unit not given beside the values
[36] = system: P. aeruginosa strain ATCC 47085 biofilm
Protocol: as §2, §3, §4

For N=C(N)NCCC[C@@H]1NC(=O)[C@H](CCCNC(=N)N)NC(=O)[C@H](CCCNC(=N)N)NC(=O)[C@H](Cc2c[nH]c3ccccc23)NC(=O)[C@H](Cc2c[nH]c3ccccc23)NC(=O)[C@H](Cc2c[nH]c3ccccc23)NC(=O)[C@H](Cc2c[nH]c3ccccc23)NC(=O)[C@H](CCCNC(=N)N)NC1=O [[R4W4], reference compound] (cyclo(RRRRWWWW)), the “E. coli (ATCC 25922) MBC” value [1] was 32 µg/mL, the “KPC (ATCC BAA-1705) MBC” value [2] was 64 µg/mL and the “MRSA (ATCC BAA-1556) MBC” value [3] was 32 µg/mL. The “PSA (ATCC 27883) MBC” value [4] was 128 µg/mL, the larvae killed [5] was “all” and the “MRSA (ATCC BAA-1556) MIC” value [6] was 4 µg/mL. The “PSA (ATCC 27883 MIC)” value [7] was 64 µg/mL, the “E. coli (ATCC 25922) MIC” value [8] was 16 µg/mL and the “KPC (ATCC BAA-1705) MIC” value [9] was 32 µg/mL. The MIC [10] was 2.67 μg/mL and 1.95 μM, the MIC [11] was 42.8 μg/mL and 31.3 μM and the “interaction with tetracycline in time-kill assays” value [12] was “synergistically”. The “interaction with tetracycline in time-kill assays” value [13] was “synergistically”.

With CN[C@H](CC(C)C)C(=O)N[C@H]1C(=O)N[C@@H](CC(N)=O)C(=O)N[C@H]2C(=O)N[C@H]3C(=O)N[C@H](C(=O)N[C@H](C(=O)O)c4cc(O)cc(O)c4-c4cc3ccc4O)[C@H](O)c3ccc(c(Cl)c3)Oc3cc2cc(c3O[C@@H]2O[C@H](CO)[C@@H](O)[C@H](O)[C@H]2O[C@H]2C[C@](C)(N)[C@H](O)[C@H](C)O2)Oc2ccc(cc2Cl)[C@H]1O [Vancomycin, reference compound] the MIC [14] was greater than 256 µg/mL, the MIC90 [15] was 0.63 µg/mL (≈ 0.435 µM) and the MIC95 [15] was 0.63 µg/mL (≈ 0.435 µM). It also gave an MIC99 [15] of 0.63 µg/mL (≈ 0.435 µM), an MIC90 [16] of 0.31 µg/mL (≈ 0.214 µM) and an MIC95 [16] of 0.31 µg/mL (≈ 0.214 µM). The MIC99 [16] was 0.31 µg/mL (≈ 0.214 µM), the “Pseudomonas aeruginosa (ATCC 27883) MIC” value ([17]; Table 29, [R6W4] (IFX-318)) was greater than 64 µg/mL and the “Pseudomonas aeruginosa (ATCC 27883) MIC” value ([17]; Table 30, [R5W4K] (IFX-315)) was greater than 64 µg/mL. The “Pseudomonas aeruginosa (ATCC 27883) MIC” value ([17]; Table 31, [R5W4] (IFX-301)) was greater than 64 µg/mL, the “Escherichia coli (ATCC 25922) MIC” value ([18]; Table 29, [R6W4] (IFX-318)) was greater than 64 µg/mL and the “Escherichia coli (ATCC 25922) MIC” value ([18]; Table 30, [R5W4K] (IFX-315)) was greater than 64 µg/mL. The “Escherichia coli (ATCC 25922) MIC” value ([18]; Table 31, [R5W4] (IFX-301)) was greater than 64 µg/mL, the MIC of antibiotic [19] was greater than 256 µg/mL and the “inhibition of biofilm formation” value ([20]; all other concentrations ([…] to 0.001 μg/mL)) was “approximately 50%”. The “MIC Klebsiella pneumoniae (ATCC BAA-1705)” value [21] was “No effect”, the “MIC Pseudomonas aeruginosa (ATCC 27883)” value [22] was “No effect” and the “MIC Escherichia coli (ATCC 25922)” value [23] was “No effect”. For the same molecule, the MIC [24] was 0.5 µg/mL (≈ 0.345 µM), the MIC ([25]; ATCC27883, read-out: MIC P. aeruginosa ATCC 27883) was greater than 256 µg/mL and the MIC ([25]; ATCC27883, read-out: PSA (ATCC 27883 MIC)) was greater than 512 µg/mL. It also gave an MIC ([26]; ATCC25922, read-out: E. coli (ATCC 25922) MIC) greater than 512 µg/mL, an MIC ([26]; ATCC25922, read-out: MIC E. coli (ATCC 25922)) greater than 256 µg/mL and an MIC ([27]; ATCCBAA1705, read-out: KPC (ATCC BAA-1705) MIC) greater than 512 µg/mL. For the same molecule, the MIC ([27]; ATCCBAA1705, read-out: MIC K. pneumoniae (ATCC BAA-1705)) was greater than 256 µg/mL, the MIC [28] was greater than 64 µg/mL and the MIC ([29]; read-out: Klebsiella pneumoniae (ATCC BAA-1705) MIC, Table 28, IFX-031, antibiotics alone and PHY-MIX (1:1 w/w)) was greater than 256 µg/mL. The MIC ([29]; read-out: Klebsiella pneumoniae (ATCC BAA-1705) MIC, Table 29, [R6W4] (IFX-318), antibiotics alone and PHY-MIX (1:1 w/w)) was greater than 256 µg/mL, the MIC ([29]; read-out: Klebsiella pneumoniae (ATCC BAA-1705) MIC, Table 30, [R5W4K] (IFX-315), antibiotics alone and PHY-MIX (1:1 w/w)) was greater than 256 µg/mL and the MIC ([29]; read-out: Klebsiella pneumoniae (ATCC BAA-1705) MIC, Table 31, [R5W4] (IFX-301), antibiotics alone and PHY-MIX (1:1 w/w)) was greater than 64 µg/mL. For the same molecule, the MIC [30] was greater than 64 µg/mL, the MIC [31] was greater than 256 µg/mL and the inhibition at 5000 µg/mL [32] was roughly 97%. For the same molecule, the MIC [33] was 0.5 µg/mL (≈ 0.345 µM).

Work on N=C(N)NCCC[C@H](NC(=O)[C@H](CCCNC(=N)N)NC(=O)[C@H](CCCNC(=N)N)NC(=O)[C@@H](N)CCCNC(=N)N)C(=O)N[C@@H](Cc1ccc2ccccc2c1)C(=O)N[C@@H](Cc1ccc2ccccc2c1)C(=O)N[C@@H](Cc1c[nH]c2ccccc12)C(=O)O [IFX-031-1, NH2-R-R-R-R-NaI-NaI-Trp-OH] (H-RRRR[2Nal][2Nal]W-OH) yielded an MIC90 [15] of 25 µg/mL (≈ 20.4 µM), an MIC95 [15] of 25 µg/mL (≈ 20.4 µM) and an MIC99 [15] of 25 µg/mL (≈ 20.4 µM). For the same molecule, the MIC90 [16] was 25 µg/mL (≈ 20.4 µM), the MIC95 [16] was greater than 50 µg/mL and the MIC99 [16] was 25 µg/mL (≈ 20.4 µM). The “MIC MRSA ATCC BAA-1556” value [6] was 6.2 µg/mL (≈ 5.07 µM), the “MIC S. aureus ATCC 29213” value [34] was 6.2 µg/mL (≈ 5.07 µM) and the “MIC P. aeruginosa ATCC 27883” value [7] was 25 µg/mL (≈ 20.4 µM). For the same molecule, the “MIC E. coli ATCC 25922” value [8] was 25 µg/mL (≈ 20.4 µM), the HC50 [35] was 450 and the “ability to prevent biofilm formation” value [20] was “able to inhibit biofilm formation”. The “ability to prevent biofilm formation” value [36] was “able to inhibit biofilm formation”.
